assay: log P by HPLC; assay type: physicochemical; conditions: EEC directive 79/831 Annex V. A8 by HPLC (gradient method, acetonitrile/0.1% aqueous phosphoric acid)

Structure (SMILES)	logP
C#CCN(C)c1c(-c2c(F)cccc2F)c(Cl)nc2nc(C)nn12 [compound 331]	2.54
CN(CC1CC1(Cl)Cl)c1c(-c2c(F)cc(F)cc2F)c(Cl)nc2nc(C3CC3)nn12 (stereo not drawn) [compound 509]	4.26
Cc1nc2nc(Cl)c(-c3c(F)cccc3F)c(N3CCC(C)CC3)n2n1 [compound 313]	3.64
Cc1nc2nc(Cl)c(-c3ccccc3F)c(NC3CCCCC3)n2n1 [compound 397]	3.43
Fc1cccc(Cl)c1-c1c(Cl)nc2nc(C3CC3)nn2c1NCC(F)(F)F [compound 481]	3.19
CCOC(=O)CN(CC)c1c(-c2c(F)cccc2F)c(Cl)nc2nc(C)nn12 [compound 343]	2.85
CCN(Cc1ccco1)c1c(-c2ccccc2Cl)c(Cl)nc2nc(C)nn12 [compound 404]	3.56
CCOC(=O)CN(c1c(-c2ccc(F)cc2F)c(Cl)nc2nc(C)nn12)C1CC1 [compound 414]	3.29
Cc1nc2nc(Cl)c(-c3ccccc3F)c(NOCc3ccccc3)n2n1 [compound 363]	2.93
Cc1nc2nc(Cl)c(-c3ccccc3F)c(N3CCOCC3)n2n1 [compound 388]	2.16
CC1CCCN1c1c(-c2c(F)cc(F)cc2F)c(Cl)nc2nc(C3CC3)nn12 (stereo not drawn) [compound 471]	3.9
Cc1nc2nc(Cl)c(-c3c(F)cccc3F)c(N3CCCCC3C)n2n1 (stereo not drawn) [compound 311]	3.57

same assay, conditions: HPLC, gradient method, acetonitrile/0.1% aqueous phosphoric acid; EEC directive 79/831 Annex V. A8

Structure (SMILES)	logP
COC(OC)C(C)Nc1c(-c2c(F)cc(F)cc2F)c(Cl)nc2nc(C)nn12 (stereo not drawn) [compound 123]	2.74
CC(C)C(C)Nc1c(-c2ccc(F)cc2Cl)c(Cl)nc2nc(C3CC3)nn12 (racemic) [compound 586]	4.25
C=CCN(C)c1c(-c2c(F)cc(F)cc2F)c(Cl)nc2nc(C)nn12 [compound 152]	3.18
Cc1nc2nc(Cl)c(-c3ccc(F)cc3F)c(NCC(C)C)n2n1 [compound 191]	3
Fc1ccc(-c2c(Cl)nc3nc(C(F)(F)F)nn3c2N2CCc3ccccc3C2)c(F)c1 [compound 815]	4.35
CCc1nc2nc(Cl)c(-c3c(F)cc(F)cc3F)c(N(N)CC(C)C)n2n1 [compound 127]	3.47
CCc1nc2nc(Cl)c(-c3c(F)cc(F)cc3F)c(N3CCC(C(F)(F)F)CC3)n2n1 [compound 2]	3.99
Cc1nc2nc(Cl)c(-c3c(F)cc(F)cc3F)c(N3CC(C)OC(C)C3)n2n1 (stereo not drawn) [compound 58]	3
Cc1nc2nc(Cl)c(-c3c(F)cccc3F)c(NOCc3ccc(Cl)cc3)n2n1 [compound 138]	3.23
Cc1ccc(Nc2c(-c3ccc(F)cc3F)c(Cl)nc3nc(C(F)(F)F)nn23)cc1 [compound 813]	4.08
COC(=O)C1CCN(c2c(-c3ccc(F)cc3F)c(Cl)nc3nc(C4CC4)nn23)CC1 [compound 731]	3.38
Cc1nc2nc(Cl)c(-c3c(F)cccc3F)c(N(C)Cc3ccco3)n2n1 [compound 566]	2.97
Fc1ccc(-c2c(Cl)nc3nc(C(F)(F)F)nn3c2N2CCC3(CC2)OCCO3)c(F)c1 [compound 796]	3.8
CC(C)C(C)Nc1c(-c2c(F)cccc2F)c(Cl)nc2nc(C3CC3)nn12 (stereo not drawn) [compound 751]	3.82
Cc1nc2nc(Cl)c(-c3c(F)cc(F)cc3F)c(N3Cc4ccccc4CO3)n2n1 [compound 168]	3.73
Cc1nc2nc(Cl)c(-c3c(F)cccc3F)c(NC(C)C3CCCCC3)n2n1 (stereo not drawn) [compound 185]	4
COCCN(C)c1c(-c2ccc(F)cc2Cl)c(Cl)nc2nc(C3CC3)nn12 [compound 628]	3.46
Cc1nc2nc(Cl)c(-c3c(F)cccc3F)c(NC3CCCCC3)n2n1 [compound 186]	3.28
COC(=O)C(COC(C)(C)C)Nc1c(-c2c(F)cc(F)cc2F)c(Cl)nc2nc(C)nn12 (stereo not drawn) [compound 120]	3.47
CCN(CCOC)c1c(-c2ccc(F)cc2F)c(Cl)nc2nc(C(F)(F)F)nn12 [compound 558]	4.03
Fc1ccc(-c2c(Cl)nc3nc(C4CC4)nn3c2N2CCCCC2)c(Cl)c1 [compound 635]	4.37

— patent US7186831B2, “5-halo-2-alkyl[1,2,4]triazolo[1,5-a]pyrimidin-7-amines” (priority 2001, dated 2007)
